Test [1] relates to peripheral blood mononuclear cells (PBMCs). Kind of test: Antiproliferative/cytotoxicity assay on PBMCs from a healthy donor. The class given is cell-based. To be noted: Homo sapiens, PBMC. The protocol:
To assess the potential toxicity of the most promising quinoline derivatives 4i, 4n, 4s, and 4ah, an antiproliferative assay was performed, using peripheral blood mononuclear cells (PBMCs) isolated from a healthy donor.
To test the newly synthesized compounds, various human cell lines were employed. HD‐MB03 cells were purchased from DSMZ (Braunschweig, Germany), while A549, MDA‐MB‐231, RPMI‐8420, SU‐DHL‐8, TOLEDO, VL51, SU‐DHL‐1, SU‐DHL‐18, and KM‐H2 were obtained from ATCC (Manassas, VA, USA). Cells were cultured in DMEM (for MDA‐MB‐231 and A549) or RPMI‐1640 (for RPMI‐8420, SU‐DHL‐8, TOLEDO, VL51, SU‐DHL‐1, SU‐DHL‐18, KM‐H2, and HD‐MB03) media (Gibco, Milan, Italy). Both media were supplemented with 115 units/mL penicillin G (Gibco, Milan, Italy), 115 µg/mL streptomycin (Invitrogen, Milan, Italy), and 10% fetal bovine serum (Invitrogen, Milan, Italy). Peripheral blood mononuclear cells (PBMCs) were isolated from healthy donors as previously described. For cytotoxicity assays, PBMCs were resuspended at 5 × 10⁵ cells/mL in complete RPMI medium with or without 2.5 µg/mL phytohemagglutinin (PHA) (Irvine Scientific) to stimulate T‐cell activation and proliferation. All cell lines were maintained at 37°C in a humidified atmosphere containing 5% CO₂. All compounds were dissolved in DMSO at a 10 mM stock concentration. For dose–response assays, cells were seeded in 96‐well plates at densities optimized for each cell line: HD‐MB03 at 10,000 cells/well, A549 at 4000 cells/well, and MDA‐MB‐231 at 7000 cells/well. All other cell lines were seeded at 20,000 cells/well in a final volume of 100 µL per well. After 24 h, cells were treated with a 6‐point serial dilution of compounds starting from 10 µM, in triplicate for statistical analysis. Seventy‐2 h posttreatment, 10 µL of resazurin solution (100 µg/mL) was added to each well, and cells were incubated for an additional 3–6 h. Fluorescence was measured using a Spark 10 M microplate reader (Tecan Group Ltd., Männedorf, Switzerland) with excitation at 535 nm and emission at 600 nm. The IC₅₀ was defined as the concentration of compound required to inhibit cell proliferation by 50% compared to cells treated with the highest DMSO concentration.
To test the newly synthesized compounds, various human cell lines were employed. HD-MB03 cells were purchased from DSMZ (Braunschweig, Germany), while A549, MDA-MB-231, RPMI-8420, SU-DHL-8, TOLEDO, VL51, SU-DHL-1, SU-DHL-18, and KM-H2 were obtained from ATCC (Manassas, VA, USA). Cells were cultured in DMEM (for MDA-MB-231 and A549) or RPMI-1640 (for RPMI-8420, SU-DHL-8, TOLEDO, VL51, SU-DHL-1, SU-DHL-18, KM-H2, and HD-MB03) media (Gibco, Milan, Italy). Both media were supplemented with 115 units/mL penicillin G (Gibco, Milan, Italy), 115 µg/mL streptomycin (Invitrogen, Milan, Italy), and 10% fetal bovine serum (Invitrogen, Milan, Italy). Peripheral blood mononuclear cells (PBMCs) were isolated from healthy donors as previously described. ^[1] For cytotoxicity assays, PBMCs were resuspended at 5 × 10⁵ cells/mL in complete RPMI medium with or without 2.5 µg/mL phytohemagglutinin (PHA) (Irvine Scientific) to stimulate T cell activation and proliferation. All cell lines were maintained at 37 °C in a humidified atmosphere containing 5% CO₂. All compounds were dissolved in DMSO at a 10 mM stock concentration. For dose–response assays, cells were seeded in 96-well plates at densities optimized for each cell line: HD-MB03 at 10,000 cells/well, A549 at 4,000 cells/well, and MDA-MB-231 at 7,000 cells/well. All other cell lines were seeded at 20,000 cells/well in a final volume of 100 µL per well. After 24 hours, cells were treated with a 6-point serial dilution of compounds starting from 10 µM, in triplicate for statistical analysis. Seventy-two hours post-treatment, 10 µL of resazurin solution (100 µg/mL) was added to each well, and cells were incubated for an additional 3–6 hours. […]

The test system of test [2] is VL51. Nature of the test: Mitochondrial membrane potential analysis (TMRE). The class given is cell-based, human. The following applies: 24 h of treatment. The protocol: (§1) Cells were plated in 12‐well plates at 0.2 × 10⁶ cells/mL in 1 mL of complete medium. After 24 h, cells were treated with the indicated compound concentrations. Following a further 24‐h incubation, cells were stained with TMRE (Invitrogen, US) at 1 µM for 20 min. After washing with 1X PBS, fluorescence was detected using a CytoFLEX flow cytometer (Beckman Coulter) and analyzed with FlowJo software v.10.7.1.

Test [3] relates to TOLEDO. Kind of test: Mitochondrial membrane potential analysis (TMRE). The class given is cell-based, human. To be noted: 24 h of treatment. The protocol: as §1
Test [4] deals with VL51. Kind of test: EdU incorporation assay (DNA synthesis). Format: cell-based, human. To be noted: 1 and 2 µM, 48 h. The protocol: (§2) For evaluation of DNA synthesis, cells were plated in 12‐well plates at 0.2 × 10⁶ cells/mL in 1 mL of complete medium. After 24 h, cells were treated with the indicated compound concentrations. EdU (5‐ethynyl‐2‐deoxyuridine) incorporation was performed according to the Baseclick EdU Flow Cytometry Kit instructions (Sigma Aldrich, St. Louis, MO, USA) as previously described. EdU‐FITC incorporation was detected using a CytoFLEX flow cytometer (Beckman Coulter, Brea, CA, USA) and analyzed with FlowJo software v.10.7.1 (BD Biosciences).

The test system of test [5] is TOLEDO. Kind of test: EdU incorporation assay (DNA synthesis). The class given is cell-based, human. To be noted: 1 and 2 µM, 48 h. The protocol:
as §2

In test [6] the test system is VL51. Kind of test: Cell-cycle analysis (flow cytometry). The class given is cell-based, human. To be noted: 2 µM, 48 h. The protocol: Cells were plated in 12‐well plates at 0.2 × 10⁶ cells/mL in 1 mL of complete medium. After 24 h, cells were treated with the specified compound concentrations. Following an additional 24 h, cells were harvested, centrifuged, and fixed in 70% ice‐cold ethanol. Cells were then stained and processed as previously described. Data acquisition was performed using a Coulter Cytomics FC500 flow cytometer (Beckman Coulter).
(A flow cytometer gives signals particle by particle.)

Test [7] has as its system TOLEDO. Kind of test: Cell-cycle analysis (flow cytometry). Format: cell-based, human. The following applies: 2 µM, 48 h. The protocol:
Cells were plated in 12‐well plates at 0.2 × 10⁶ cells/mL in 1 mL of complete medium. After 24 h, cells were treated with the specified compound concentrations. […] Cells were then stained and processed as previously described. Data acquisition was performed using a Coulter Cytomics FC500 flow cytometer (Beckman Coulter).

Where [8] appears, read: PBMCs stimulated with 2.5 µg/mL PHA, read-out: IC50 phytohemagglutinin-stimulated PBMCs.
The mark [9] stands for this setting: resting PBMCs from a healthy donor, read-out: IC50 resting PBMCs.

The record followed here is article PMC12645083, “Microwave‐Enhanced Synthesis of 2‐Styrylquinoline‐4‐Carboxamides With Promising Anti‐Lymphoma Activity” (Archiv Der Pharmazie, 2025).

pIC50: −log10 of the molar value. Where two headings read alike, the source gives them in different places. A value given as a limit tells only on which side of the number the result lay.

As usually defined, the pIC50 is the negative decadic logarithm of the IC50, by convention in mol/L. Take `COc1cc(/C=C/c2cc(C(=O)Nc3ccc([N+](=O)[O-])cc3)c3ccccc3n2)cc(OC)c1OC` [4s, (E)-N-(4-nitrophenyl)-2-(3,4,5-trimethoxystyryl)quinoline-4-carboxamide]: the pIC50 in test [1] (setting [8]) and in test [1] (setting [9]) was less than 5.00 in each case.

On to `O=C(Nc1ccc([N+](=O)[O-])cc1)c1cc(/C=C/c2ccccc2)nc2ccccc12` [4i, (E)-N-(4-nitrophenyl)-2-styrylquinoline-4-carboxamide], for which the “Mitochondrial membrane depolarization (TMRE-negative cells)” value in the test with VL51 [2] and in the test with TOLEDO [3] was “increased percentage of TMRE‐negative cells” in each case. The pIC50 in test [1] (setting [8]) and in test [1] (setting [9]) was less than 5.00 each time. The “DNA synthesis (EdU incorporation)” value in the test on VL51 [4] is “marked, dose‐dependent reduction in DNA synthesis”; in the test with TOLEDO [5] it was “marked, dose‐dependent reduction in DNA synthesis”. The Cell-cycle distribution result with VL51 [6] and in the test on TOLEDO [7] was “significant accumulation of cells in the G₂/M phase” each time.

On to `O=C(Nc1ccc(Cl)cc1)c1cc(/C=C/c2ccccc2[N+](=O)[O-])nc2ccccc12` [4ah, (E)-N-(4-chlorophenyl)-2-(2-nitrostyryl)quinoline-4-carboxamide], for which the pIC50 in test [1] (setting [8]) and in test [1] (setting [9]) was less than 5.00 throughout.

Consider `COc1cc(/C=C/c2cc(C(=O)Nc3c(C)cccc3C)c3ccccc3n2)cc(OC)c1OC` [4n, (E)-N-(2,6-dimethylphenyl)-2-(3,4,5-trimethoxystyryl)quinoline-4-carboxamide], for which the pIC50 in test [1] (setting [8]) and in test [1] (setting [9]) was less than 5.00 throughout.
